Results as given in US6943181B2, “Use of substituted gamma-lactone compounds as pharmaceutical preparations” (Grunenthal GmbH, priority 2001, dated 2005).

biological target: T1, nitrogen monoxide synthase (NO synthase) (Rattus norvegicus, UniProt P29476); test: HTS-NOS assay (nitrogen monoxide synthase assay); type: biochemical; conditions: compound at 10 μM; enzyme preparation from rat cerebella; [3H]-arginine substrate
T1 construct: the supernatant was then decanted off and frozen in portions; from tissue; host or cells: rat cerebellum (homogenate, 20,000 g supernatant)
Description: This assay makes it possible to determine the percentage inhibition of NO synthase by a compound of the general formula I used according to the invention by measuring NOS activity on exposure to the compound. NO synthase is here mixed under suitable conditions together with radioactively labelled arginine and the particular compound of the general formula I. After termination of the NO formation reaction at a predetermined time, the quantity of unconverted arginine is directly or indirectly determined. […] This assay may be carried out at follows: • (a) Incubation of the NO synthase with labelled arginine as the substrate in a reaction vessel, • (b) Separation of the labelled arginine from the labelled citrulline optionally arising as a product of the enzymatic reaction at a time at which the concentration of citrulline is rising, • (c) Measurement of the quantity of arginine separated in each case.
Separation is performed by means of a filter plate membrane.
Radioactive arginine is used as the substrate in this HTS-NOS assay. Depending on the type of microtitre plate (MTP), the assay volume may be selected in the range between 25 μl and 250 μl. Depending on the enzyme source used, cofactors and coenzymes are added. The batches are incubated in this microtitre plate (assay MTP) according to step (a) at room temperature and, depending on the enzyme activity used (units), lasts between 5 and 60 minutes. On completion of incubation (step (a)), the plate is placed in a cell harvester, which is equipped with an MTP which has a cation exchange membrane as a filter bottom (filter MTP). All the batches from the assay MTP are transferred into this filter MTP and suction filtered through a cation exchange filter plate, a paper filter loaded with phosphate groups. The filter MTP is then washed with buffer or water. This procedure binds the remaining substrate arginine onto the cation exchanger, while the enzymatically formed radioactive citrulline is quantitatively eluted. Once the filter MTP has been dried and scintillation liquid added, the bound arginine can be counted in the scintillation counter. Low radioactivity indicates an uninhibited NOS reaction. An inhibited enzyme reaction means that the radioactive arginine has not been converted. This means that there is a high level of radioactivity on the filter.
• Arginine, L-[2,3,4-^3H]-monohydrochloride; item no. […] The pH value of the buffer was adjusted to 7.4 at 25° C. • Washing medium: H2O Enzyme Preparation
Rat cerebella were used as the starting tissue. The animals were stunned and killed, the brain tissue, the cerebellum, was dissected out, 1 ml of enzyme preparation buffer (4° C.) was added per cerebellum, and the tissue was disrupted for 1 min at 6000 rpm in a Polytron homogeniser. The mixture was then centrifuged at 4° C. for 15 min at 20,000 g, and the supernatant was then decanted off and frozen in portions at −80° C. (discarding the precipitate).
96-Well MTPs with a well capacity of ≦250 μl were used Pipetting sequence: see table 1:
Once the pipetting operation was complete, a lid was laid on top of this MTP (assay MTP). Incubation at 25° C. (room temperature (RT)) for 5-60 min, depending on the quantity and activity of the enzyme used.
The contents of the assay MTP were then transferred with the assistance of a 96 well cell harvester into a 96 well cation exchange MTP (filter MTP) and suction filtered. A single washing with […] of H2O (from a trough) was then performed.
The plate was then dried for 1 h at 60° C. in a drying cabinet. The bottom of the filter MTP was then carefully sealed from beneath with a “back seal”. 35 μl of scintillating material were then pipetted into each well. The top of the plate was also sealed with a “top seal”. After 1 hour's waiting time, the plate was assessed on the β-counter.

For “3-(5-Bromo-6-methyl-pyridin-2-ylamino)-5-methyl-5-naphthalen-l-yl-dihydro-furan-2-one [Example 53]”, the “NOS (% inhibition)” value was 40%.

Going from Cc1ccc(C2(C)CC(Nc3ccc4cccc(O)c4n3)C(=O)O2)c(C)c1 (centres unmarked) [Example 1, 5-(2,4-Dimethyl-phenyl)-3-(8-hydroxy-quinolin-2-ylamino)-5-methyl-dihydro-furan-2-one] to Cc1cc(C)nc(NC2CC(C)(c3ccc(C)cc3C)OC2=O)c1 (centres unmarked) [Example 3, 5-(2,4-Dimethyl-phenyl)-3-(4,6-dimethyl-pyridin-2-ylamino)-5-methyl-dihydro-furan-2-one], the inhibition at 10 µM rises from 40% to 42%.

Going from Cc1cc(C)nc(NC2CC(C)(c3ccc(C)c(C)c3)OC2=O)c1 (centres unmarked) [Example 2, 5-(3,4-Dimethyl-phenyl)-3-(4,6-dimethyl-pyridin-2-ylamino)-5-methyl-dihydro-furan-2-one] to Cc1ccnc(NC2CC(C)(c3ccc(C)c(C)c3)OC2=O)c1 (centres unmarked) [Example 6, 5-(3,4-Dimethyl-phenyl)-5-methyl-3-(4-methyl-pyridin-2-ylamino)-dihydro-furan-2-one], the inhibition at 10 µM falls from 45% to 40%.

Going from Cc1cc(C)nc(NC2CC(C)(c3ccc(C4CCCCC4)cc3)OC2=O)c1 (centres unmarked) [Example 4, 5-(4-Cyclohexyl-phenyl)-3-(4,6-dimethyl-pyridin-2-ylamino)-5-methyl-dihydro-furan-2-one] to Cc1ccnc(NC2CC(C)(c3ccc(C4CCCCC4)cc3)OC2=O)c1 (centres unmarked) [Example 8, 5-(4-Cyclohexyl-phenyl)-5-methyl-3-(4-methyl-pyridin-2-ylamino)-dihydro-furan-2-one], the inhibition at 10 µM falls from 45% to 41%.

Compared with Cc1cc(C)cc(C2(C)CC(Nc3cc(C)cc(C)n3)C(=O)O2)c1 (centres unmarked) [Example 5, 5-(3,5-Dimethyl-phenyl)-3-(4,6-dimethyl-pyridin-2-ylamino)-5-methyl-dihydro-furan-2-one], Cc1cccc(C2(C)CC(Nc3cc(C)cc(C)n3)C(=O)O2)c1 (centres unmarked) [Example 11, 3-(4,6-Dimethyl-pyridin-2-ylamino)-5-methyl-5-m-tolyl-dihydro-furan-2-one] is higher in inhibition at 10 µM: 58% for the first, 81% for the second.

First: Cc1ccnc(NC2CC(C)(c3ccc(C)cc3C)OC2=O)c1 (centres unmarked) [Example 7, 5-(2,4-Dimethyl-phenyl)-5-methyl-3-(4-methyl-pyridin-2-ylamino)-dihydro-furan-2-one]
Second: Cc1ccc(C2(C)CC(Nc3cc(C)cc(C)n3)C(=O)O2)cc1 (centres unmarked) [Example 10, 3-(4,6-Dimethyl-pyridin-2-ylamino)-5-methyl-5-p-tolyl-dihydro-furan-2-one]
The inhibition at 10 µM of the first is lower: 45% for the first, 61% for the second.

Going from Cc1cccc(C2(C)CC(Nc3ccc4ccccc4n3)C(=O)O2)c1 (centres unmarked) [Example 9, 5-Methyl-3-(quinolin-2-ylamino)-5-m-tolyl-dihydro-furan-2-one] to Cc1ccnc(NC2CC(C)(c3ccc(Oc4ccccc4)cc3)OC2=O)c1 (centres unmarked) [Example 23, 5-Methyl-3-(4-methyl-pyridin-2-ylamino)-5-(4-phenoxy-phenyl)-dihydro-furan-2-one], the inhibition at 10 µM rises from 51% to 79%.

Compared with CCOc1ccc(C2(C)CC(Nc3cc(C)cc(C)n3)C(=O)O2)cc1 (centres unmarked) [Example 12, 3-(4,6-Dimethyl-pyridin-2-ylamino)-5-(4-ethoxy-phenyl)-5-methyl-dihydro-furan-2-one], Cc1cc(C)nc(NC2CC(C)(c3ccc(C(C)C)cc3)OC2=O)c1 (centres unmarked) [Example 28, 3-(4,6-Dimethyl-pyridin-2-ylamino)-5-(4-isopropyl-phenyl)-5-methyl-dihydro-furan-2-one] is higher in inhibition at 10 µM: 59% for the first, 68% for the second.

Compared with Cc1cnc(NC2CC(C)(c3ccc(C#N)cc3)OC2=O)c(Br)c1 (centres unmarked) [Example 13, 4-[4-(3-Bromo-5-methyl-pyridin-2-ylamino)-2-methyl-5-oxo-tetrahydro-furan-2-yl]-benzonitrile], Cc1cnc(NC2CC(C)(c3ccc(C(C)(C)C)cc3)OC2=O)c(Br)c1 (centres unmarked) [Example 14, 3-(3-Bromo-5-methyl-pyridin-2-ylamino)-5-(4-tert-butyl-phenyl)-5-methyl-dihydro-furan-2-one] is higher in inhibition at 10 µM: 44% for the first, 48% for the second.

Compared with CCCc1cccc(NC2CC(C)(c3ccc(C(C)(C)C)cc3)OC2=O)n1 (centres unmarked) [Example 15, 5-(4-tert-Butyl-phenyl)-5-methyl-3-(6-propyl-pyridin-2-ylamino)-dihydro-furan-2-one], Cc1ccnc(NC2CC(C)(c3ccc(C(C)(C)C)cc3)OC2=O)c1 (centres unmarked) [Example 24, 5-(4-tert-Butyl-phenyl)-5-methyl-3-(4-methyl-pyridin-2-ylamino)-dihydro-furan-2-one] is higher in inhibition at 10 µM: 45% for the first, 84% for the second.

Compared with Cc1ccnc(NC2CC(C)(c3ccc(C(C)(C)C)cc3)OC2=O)c1[N+](=O)[O-] (centres unmarked) [Example 16, 5-(4-tert-Butyl-phenyl)-5-methyl-3-(4-methyl-3-nitro-pyridin-2-ylamino)-dihydro-furan-2-one], CC(C)(C)c1ccc(C2(C)CC(Nc3ncccc3[N+](=O)[O-])C(=O)O2)cc1 (centres unmarked) [Example 18, 5-(4-tert-Butyl-phenyl)-5-methyl-3-(3-nitro-pyridin-2-ylamino)-dihydro-furan-2-one] is lower in inhibition at 10 µM: 47% for the first, 40% for the second.

First: Cc1nc(NC2CC(C)(c3ccc(Oc4ccccc4)cc3)OC2=O)ccc1Br (centres unmarked) [Example 17, 3-(5-Bromo-6-methyl-pyridin-2-ylamino)-5-methyl-5-(4-phenoxy-phenyl)-dihydro-furan-2-one]
Second: Cc1cc(C)nc(NC2CC(C)(c3ccc(Oc4ccccc4)cc3)OC2=O)c1 (centres unmarked) [Example 21, 3-(4,6-Dimethyl-pyridin-2-ylamino)-5-methyl-5-(4-phenoxy-phenyl)-dihydro-furan-2-one]
The inhibition at 10 µM of the first is lower: 43% for the first, 91% for the second.

Compared with CC1(c2ccc(Oc3ccccc3)cc2)CC(Nc2ncccc2OCc2ccccc2)C(=O)O1 (centres unmarked) [Example 19, 3-(3-Benzyloxy-pyridin-2-ylamino)-5-methyl-5-(4-phenoxy-phenyl)-dihydro-furan-2-one], CC(C)(C)c1ccc(C2(C)CC(Nc3ncccc3OCc3ccccc3)C(=O)O2)cc1 (centres unmarked) [Example 20, 3-(3-Benzyloxy-pyridin-2-ylamino)-5-(4-tert-butyl-phenyl)-5-methyl-dihydro-furan-2-one] is higher in inhibition at 10 µM: 40% for the first, 54% for the second.

Going from Cc1cc(C)nc(NC2CC(C)(c3ccc(C(C)(C)C)cc3)OC2=O)c1 (centres unmarked) [Example 22, 5-(4-tert-Butyl-phenyl)-3-(4,6-dimethyl-pyridin-2-yl-amino)-5-methyl-dihydrofuran-2-one] to Cc1cc(C)nc(NC2CC(C)(c3cc4ccccc4o3)OC2=O)c1 (centres unmarked) [Example 29, 5-Benzofuran-2-yl-3-(4,6-dimethyl-pyridin-2-ylamino)-5-methyl-dihydro-furan-2-one], the inhibition at 10 µM falls from 44% to 40%.

Going from CC1(c2ccc(C#N)cc2)CC(Nc2ncc(Br)cc2[N+](=O)[O-])C(=O)O1 (centres unmarked) [Example 25, 4-[4-(5-Bromo-3-nitro-pyridin-2-ylamino)-2-methyl-5-oxo-tetrahydro-furan-2-yl]-benzonitrile] to CC1(c2ccc(C#N)cc2)CC(Nc2ncc(Br)cn2)C(=O)O1 (centres unmarked) [Example 26, 4-[4-(5-Bromo-pyrimidin-2-ylamino)-2-methyl-5-oxo-tetrahydro-furan-2-yl]-benzonitrile], the inhibition at 10 µM falls from 45% to 43%.

Compared with CCCc1cccc(NC2CC(C)(c3cc4ccccc4s3)OC2=O)n1 (centres unmarked) [Example 27, 5-Benzo[b]thiophen-2-yl-5-methyl-3-(6-propyl-pyridin-2-ylamino)-dihydro-furan-2-one], Cc1ccnc(NC2CC(C)(c3cc4ccccc4s3)OC2=O)c1 (centres unmarked) [Example 30, 5-Benzo[b]thiophen-2-yl-5-methyl-3-(4-methyl-pyridin-2-ylamino)-dihydro-furan-2-one] is lower in inhibition at 10 µM: 43% for the first, 41% for the second.

For Cc1ccnc(NC2CC(C)(c3cc4ccccc4o3)OC2=O)c1 (centres unmarked) [Example 31, 5-Benzofuran-2-yl-5-methyl-3-(4-methyl-pyridin-2-ylamino)-dihydro-furan-2-one], the inhibition at 10 µM was 44%.
